ChEMBL document CHEMBL3621188, “Evaluation of (acyloxy)alkyl ester linkers for antibiotic release from siderophore-antibiotic conjugates” (Bioorg Med Chem Lett, 2015)
Converted amounts (≈) assume the structure as drawn.

Assays:
[1] = Half life of compound in HEPES buffer measured at pH 7.5 and 30 DegC by HPLC analysis; assay type: physicochemical
[2] = Drug degradation in HEPES buffer assessed as decomposition measured at pH 7.5 and 30 DegC after 21 hrs by HPLC analysis; assay type: physicochemical; conditions: read-out: Drug degradation
Escherichia coli = experiment: Antimicrobial activity against Escherichia coli K-12 measured after 19 hrs; assay type: functional; conditions: K-12, 19 h
[3] = Stability of compound in HEPES buffer assessed as hydrolysis measured at pH 7.5 and 30 DegC after 9 hrs by HPLC analysis; assay type: physicochemical; conditions: pH 7.5, 9 h

SMILES	half-life [1]	degraded at 21 h [2]	MIC (Escherichia coli)	Stability [3]
O=C(NCCCCCC(=O)N1CCN(c2cc3c(cc2F)c(=O)c(C(=O)O)cn3C2CC2)CC1)c1cc(O)c(O)c(C(=O)N[C@H]2COC(=O)[C@@H](NC(=O)c3cccc(O)c3O)COC(=O)[C@@H](NC(=O)c3cccc(O)c3O)COC2=O)c1	8.7 h	–	–	–
CC(OC(=O)[C@@H](NC(=O)c1ccccc1)C(C)C)OC(=O)N1CCN(c2cc3c(cc2F)c(=O)c(C(=O)O)cn3C2CC2)CC1 (stereo not given in full)	> 130 h	10%	–	–
O=C(O)c1cn(C2CC2)c2cc(N3CCNCC3)c(F)cc2c1=O [CIPROFLOXACIN]	–	–	0.1 µM (≈ 0.0331 µg/mL)	–
CN[C@H](C(=O)OC(C)OC(=O)N1CCN(c2cc3c(cc2F)c(=O)c(C(=O)O)cn3C2CC2)CC1)C(C)C (stereo not given in full)	2.4 h	–	–	–
CNCC(=O)OCOC(=O)N1CCN(c2cc3c(cc2F)c(=O)c(C(=O)O)cn3C2CC2)CC1	0.35 h	–	–	–
CC(OC(=O)[C@H](C)NC(=O)c1cc(O)c(O)c(C(=O)N[C@H]2COC(=O)[C@@H](NC(=O)c3cccc(O)c3O)COC(=O)[C@@H](NC(=O)c3cccc(O)c3O)COC2=O)c1)OC(=O)N1CCN(c2cc3c(cc2F)c(=O)c(C(=O)O)cn3C2CC2)CC1 (stereo not given in full)	8.1 h	–	1 µM (≈ 1.19 µg/mL)	Unstable
CC(OC(=O)[C@@H](NC(=O)c1cc(O)c(O)c(C(=O)N[C@H]2COC(=O)[C@@H](NC(=O)c3cccc(O)c3O)COC(=O)[C@@H](NC(=O)c3cccc(O)c3O)COC2=O)c1)C(C)C)OC(=O)N1CCN(c2cc3c(cc2F)c(=O)c(C(=O)O)cn3C2CC2)CC1 (stereo not given in full)	9.9 h	–	1 µM (≈ 1.21 µg/mL)	Unstable
CNCC(=O)OC(C)OC(=O)N1CCN(c2cc3c(cc2F)c(=O)c(C(=O)O)cn3C2CC2)CC1 (stereo not given)	1.6 h	–	–	–
CC(OC(=O)[C@H](C)NC(=O)c1ccccc1)OC(=O)N1CCN(c2cc3c(cc2F)c(=O)c(C(=O)O)cn3C2CC2)CC1 (stereo not given in full)	> 60 h	20%	–	–
